Experimental findings from patent publication US11471442B2, “Administration of gut-selective JAK3 inhibitor” (THERAVANCE BIOPHARMA R&D IP, LLC, priority 2020, dated 2022) are described below.

Holding throughout (format): in vivo
The nature of data set [1]: Colon and plasma mouse pharmacokinetics.
In data set [2] the test system is oxazolone-induced colitis model in mice. As to the kind of experiment: Oxazolone-induced colitis model in mice. The text has this:
(§1) Oxazolone-induced colitis is an experimental model that has a histological resemblance to human ulcerative colitis.

The subject of a further data set is splenic NK cell counts. As to the kind of experiment: Immunosuppression model in mice (splenic NK cell counts). As to conditions: same or higher doses than required for efficacy in the oxazolone model.
Excerpt: as §1

Data set [3] in a line: Phase 1 pharmacokinetics across all SAD and MAD cohorts. The following applies: human, plasma, oral. The protocol:
The plasma PK parameters of the compound of formula (I) calculated following single (Part A) or multiple (Parts B) oral doses.
For all subjects, blood samples for the determination of plasma concentration of the compound of formula (I) were collected at scheduled time points. Blood samples were analyzed to calculate different plasma PK parameters in both part A and part B.
For all PK data analyses, the PK analysis set was used. Individual subject and mean plasma drug concentration versus time curves for the compound of formula (I) were presented for each dose group. Summary statistics (mean, standard deviation, coefficient of variation, median, minimum, maximum, geometric mean, geometric coefficient of variation, number of subjects) were calculated for plasma concentrations at each time point for each dose group, and the PK parameters for each dose group. Urine PK parameters were summarized for exploratory purposes.

The term half-life denotes the time in which the quantity being followed falls by half. Usually Cmax stands for the peak of the concentration-time curve. As to `CN(C)C/C=C/C(=O)N1CC(COc2cc(-c3ccc(O)cc3)cc3[nH]ncc23)C1` [compound of formula (I)], the Kp in data set [1] (colon/plasma, mouse, oral administration, read-out: ratio of exposure in the colon to exposure in plasma) is over 1250. Besides, the “permeability coefficient (Papp)” value in data set [1] (stated in the sentence on the colon and plasma mouse pharmacokinetics study) is on record as “less than 10×10^−6 cm/sec”. For the same compound, the “activity in the oxazolone-induced colitis model” value in data set [2] is reported as “demonstrated activity”. Besides, the “splenic NK cell counts” value with splenic NK cell counts is recorded as “unaffected”. For the same compound, the half-life in data set [3] (across all doses in the SAD and MAD cohorts, read-out: mean terminal elimination half-life) was in the range of 15 to 20 h. Also, in data set [3] (across all doses, read-out: highest observed Cmax), the Cmax amounted to 34.3 ng/mL.
